EC50 data for 13 compounds are collected here from US10308659B2, “Pyridine derivatives” (Hoffmann-La Roche Inc., priority 2013, dated 2019).

Test [1] deals with human CB1 receptors (Homo sapiens (Human), UniProt P21554). In words: cAMP assay, CHO cells expressing human CB1 receptors. The class given is cell-based. The following applies: functional cAMP assay, CHO cells expressing human CB1; read-out: EC50 CB1 human. The protocol: (§1) CHO cells expressing human CB1 or CB2 receptors are seeded 17-24 hours prior to the experiment 50.000 cells per well in a black 96 well plate with flat clear bottom (Corning Costar #3904) in DMEM (Invitrogen No. 31331), 1×HT supplement, with 10% fetal calf serum and incubated at 5% CO2 and 37° C. in a humidified incubator. The growth medium was exchanged with Krebs Ringer Bicarbonate buffer with 1 mM IBMX and incubated at 30° C. for 30 min. Compounds were added to a final assay volume of 100 μl and incubated for 30 min at 30° C. […] The time-resolved energy transfer is measured by a TRF reader (Evotec Technologies GmbH), equipped with a ND:YAG laser as excitation source. The plate is measured twice with the excitation at 355 nm and at the emission with a delay of 100 ns and a gate of 100 ns, total exposure time 10 s at 730 (bandwidth30 nm) or 645 nm (bandwidth 75 nm), respectively. The FRET signal is calculated as follows: FRET=T730-Alexa730-P(T645-B645) with P=Ru730-B730/Ru645-B645, where T730 is the test well measured at 730 nM, T645 is the test well measured at 645 nm, B730 and B645 are the buffer controls at 730 nm and 645 nm, respectively. cAMP content is determined from the function of a standard curve spanning from 10 μM to 0.13 nM cAMP.
(§2) EC50 values were determined using Activity Base analysis (ID Business Solution, Limited).
Background: Cyclic AMP is a second messenger, typically raised through Gs and lowered through Gi signalling.

The target of test [2] is human CB2 receptors (Homo sapiens (Human), UniProt P34972). In words: cAMP assay, CHO cells expressing human CB2 receptors. The class given is cell-based. Conditions: functional cAMP assay, CHO cells expressing human CB2; read-out: EC50 CB2 human. The procedure: as §1, §2
Chain of human CB2 receptors (P34972 whole entry): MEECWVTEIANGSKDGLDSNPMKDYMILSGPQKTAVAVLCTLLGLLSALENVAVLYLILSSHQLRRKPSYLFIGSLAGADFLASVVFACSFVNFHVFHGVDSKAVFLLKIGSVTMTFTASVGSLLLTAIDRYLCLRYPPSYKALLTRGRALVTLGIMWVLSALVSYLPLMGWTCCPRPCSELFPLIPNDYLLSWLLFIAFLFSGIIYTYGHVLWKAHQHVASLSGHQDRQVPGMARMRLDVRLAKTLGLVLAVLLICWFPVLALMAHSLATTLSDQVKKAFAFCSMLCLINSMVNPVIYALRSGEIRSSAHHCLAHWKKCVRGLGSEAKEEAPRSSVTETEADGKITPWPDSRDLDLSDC

Chain of human CB1 receptors (P21554 whole entry): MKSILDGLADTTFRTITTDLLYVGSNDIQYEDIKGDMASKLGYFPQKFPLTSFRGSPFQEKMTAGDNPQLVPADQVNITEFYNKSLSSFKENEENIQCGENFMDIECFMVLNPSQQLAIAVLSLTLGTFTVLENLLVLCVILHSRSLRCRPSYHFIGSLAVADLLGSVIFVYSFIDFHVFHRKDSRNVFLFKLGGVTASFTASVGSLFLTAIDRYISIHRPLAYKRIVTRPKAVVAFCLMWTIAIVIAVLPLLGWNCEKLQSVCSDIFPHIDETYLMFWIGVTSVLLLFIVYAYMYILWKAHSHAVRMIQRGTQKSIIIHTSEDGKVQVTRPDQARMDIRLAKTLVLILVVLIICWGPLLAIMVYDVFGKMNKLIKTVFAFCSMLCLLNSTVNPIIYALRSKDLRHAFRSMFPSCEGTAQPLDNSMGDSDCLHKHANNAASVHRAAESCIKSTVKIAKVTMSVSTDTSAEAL

In the case of `COCc1nc(-c2cc(OCC3CC3)c(C3CC3)cn2)no1` [Example 12, 3-[5-cyclopropyl-4-(cyclopropylmethoxy)pyridin-2-yl]-5-(methoxymethyl)-1,2,4-oxadiazole], the results for the EC50 in test [1] and in test [2] were more than 10000 nM and 46.6 nM, respectively.
For the compound `CC(C)c1nc(-c2cc(OCC(F)(F)F)c(C3CC3)cn2)no1` [Example 36, 3-[5-cyclopropyl-4-(2,2,2-trifluoroethoxy)pyridin-2-yl]-5-propan-2-yl-1,2,4-oxadiazole], the values for the EC50 in test [1] and in test [2] were more than 10000 nM and 20.9 nM, respectively.
In the case of `C[C@H](Oc1cc(-c2nnc(C(C)(C)C)o2)ncc1C1CC1)C(F)(F)F` [Example 120, 2-tert-butyl-5-[5-cyclopropyl-4-[(2S)-1,1,1-trifluoropropan-2-yl]oxypyridin-2-yl]-1,3,4-oxadiazole], the EC50 was more than 10000 nM in test [1] and 63 nM in test [2].
With `CC(C)(C)c1nc(-c2cc(OC3CCOC3)c(C3CC3)cn2)no1` (centres unmarked) [Example 62, 5-tert-butyl-3-[5-cyclopropyl-4-(oxolan-3-yloxy)pyridin-2-yl]-1,2,4-oxadiazole], the EC50 in test [1] was more than 10000 nM; in test [2], 17.8 nM.
The corresponding values for `c1c(-c2noc(C3CNC3)n2)ncc(C2CC2)c1OCC1CC1` [Example 29, 5-(azetidin-3-yl)-3-[5-cyclopropyl-4-(cyclopropylmethoxy)pyridin-2-yl]-1,2,4-oxadiazole] are more than 10000 nM and 797 nM.
Regarding `CC(C)(C)c1nc(-c2cc(OCCN3CCCC3)c(C3CC3)cn2)no1` [Example 94, 5-tert-butyl-3-[5-cyclopropyl-4-(2-pyrrolidin-1-ylethoxy)pyridin-2-yl]-1,2,4-oxadiazole], the EC50 in test [1] was more than 10000 nM; in test [2], 60.2 nM.
On the same counts, the results for `FC(F)(F)COc1cc(-c2noc(C3CC3)n2)ncc1Cl` [Example 71, 3-[5-chloro-4-(2,2,2-trifluoroethoxy)pyridin-2-yl]-5-cyclopropyl-1,2,4-oxadiazole] are more than 10000 nM and 280 nM.
The corresponding values for `C[C@H](Oc1cc(-c2noc(C(C)(C)C)n2)ncc1C1CC1)C(F)(F)F` [Example 48, 5-tert-butyl-3-[5-cyclopropyl-4-[(2S)-1,1,1-trifluoropropan-2-yl]oxypyridin-2-yl]-1,2,4-oxadiazole] are more than 10000 nM and 19 nM.
For the compound `CC(CN1CCCCC1)Oc1cc(-c2noc(C(C)(C)C)n2)ncc1C1CC1` (centres unmarked) [Example 96, 5-tert-butyl-3-[5-cyclopropyl-4-(1-piperidin-1-ylpropan-2-yloxy)pyridin-2-yl]-1,2,4-oxadiazole], the EC50 in test [1] was determined as 1010 nM; in test [2] it was 75.9 nM.
The corresponding values for `Cc1noc(-c2cc(OCC(F)(F)F)c(N3CC(F)(F)C3)cn2)n1` [Example 16, 5-[5-(3,3-difluoroazetidin-1-yl)-4-(2,2,2-trifluoroethoxy)pyridin-2-yl]-3-methyl-1,2,4-oxadiazole] are more than 10000 nM and 343 nM.
On the same counts, the results for `CC(C)(C)c1nc(-c2cc(Oc3ccc(F)cc3)c(C3CC3)cn2)no1` [Example 61, 5-tert-butyl-3-[5-cyclopropyl-4-(4-fluorophenoxy)pyridin-2-yl]-1,2,4-oxadiazole] are more than 10000 nM and 6.2 nM.
On the same counts, the results for `CC(C)(C)c1nc(-c2cc(OCc3ccc(F)cc3)c(C3CC3)cn2)no1` [Example 53, 5-tert-butyl-3-[5-cyclopropyl-4-[(4-fluorophenyl)methoxy]pyridin-2-yl]-1,2,4-oxadiazole] are 55.1 nM and 1.4 nM.
On to `C[C@H](Oc1cc(-c2noc(C3CC3)n2)ncc1C1CC1)C(F)(F)F` [Example 91, 5-cyclopropyl-3-[5-cyclopropyl-4-[(2S)-1,1,1-trifluoropropan-2-yl]oxypyridin-2-yl]-1,2,4-oxadiazole], for which the values for the EC50 in test [1] and in test [2] were more than 10000 nM and 641 nM, respectively.

The term EC50 denotes the concentration at which the effect is half-maximal.
